In PubChem BioAssay AID2060890 (Molecular Pharmacology Branch, DTP, NCI, 2025):

Tested on: LG0703-F948-PDC complex spheroid viability
Test: Anticancer human tumor LG0703-F948-PDC patient-derived lung adenocarcinoma cell line growth inhibition [RAS]
Details: for IC50: curve of first compound; for viability, T/C: stronger effect = lower value
How it was run: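 Tumour cells grown as complex spheroids with HUVEC endothelial cells and mesenchymal stem cells, treated with RAS pathway inhibitor combinations. Each agent spans half-log steps from near clinical Cmax, or 10 microM where Cmax is unknown.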
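Further: spheroids exposed to agents for 7 days.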
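Wherever viability, T/C is given: 100% = DMSO vehicle wells.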

CC1(C)CCC(Nc2ncc(C(F)(F)F)c(-c3c[nH]c4c(P(C)(C)=O)c(C#N)ccc34)n2)CN1 (centres undefined) + C=CC(=O)N1CCN(c2nc(OCC3CCCN3C)nc3c(F)c(-c4nc(N)cc(C)c4C(F)(F)F)c(Cl)cc23)C(C)C1
IC50 (second compound 0.00316 µM): > 0.3 µM | IC50 (second compound 0.01 µM): > 0.3 µM | IC50 (second compound 0.0316 µM): > 0.3 µM | IC50 (second compound 0.1 µM): > 0.3 µM | IC50 (second compound 0.316 µM): > 0.3 µM | IC50 (second compound 1 µM): > 0.3 µM | viability, T/C (second compound 0.00316 µM, first compound 0.000949 µM): 84.1% | viability, T/C (second compound 0.00316 µM, first compound 0.003 µM): 76.8% | viability, T/C (second compound 0.00316 µM, first compound 0.00949 µM): 63.5% | viability, T/C (second compound 0.00316 µM, first compound 0.03 µM): 62.8% | viability, T/C (second compound 0.00316 µM, first compound 0.0949 µM): 57% | viability, T/C (second compound 0.00316 µM, first compound 0.3 µM): 57.3% | viability, T/C (second compound 0.01 µM, first compound 0.000949 µM): 88.5% | viability, T/C (second compound 0.01 µM, first compound 0.003 µM): 78.8% | viability, T/C (second compound 0.01 µM, first compound 0.00949 µM): 67% | viability, T/C (second compound 0.01 µM, first compound 0.03 µM): 52.9% | viability, T/C (second compound 0.01 µM, first compound 0.0949 µM): 58.7% | viability, T/C (second compound 0.01 µM, first compound 0.3 µM): 62% | viability, T/C (second compound 0.0316 µM, first compound 0.000949 µM): 94% | viability, T/C (second compound 0.0316 µM, first compound 0.003 µM): 71.4% | viability, T/C (second compound 0.0316 µM, first compound 0.00949 µM): 68.8% | viability, T/C (second compound 0.0316 µM, first compound 0.03 µM): 53.2% | viability, T/C (second compound 0.0316 µM, first compound 0.0949 µM): 54.7% | viability, T/C (second compound 0.0316 µM, first compound 0.3 µM): 62.1% | viability, T/C (second compound 0.1 µM, first compound 0.000949 µM): 82.3% | viability, T/C (second compound 0.1 µM, first compound 0.003 µM): 77.1% | viability, T/C (second compound 0.1 µM, first compound 0.00949 µM): 55.9% | viability, T/C (second compound 0.1 µM, first compound 0.03 µM): 52.9% | viability, T/C (second compound 0.1 µM, first compound 0.0949 µM): 58.4% | viability, T/C (second compound 0.1 µM, first compound 0.3 µM): 65.3% | viability, T/C (second compound 0.316 µM, first compound 0.000949 µM): 98.4% | viability, T/C (second compound 0.316 µM, first compound 0.003 µM): 78.5% | viability, T/C (second compound 0.316 µM, first compound 0.00949 µM): 62.2% | viability, T/C (second compound 0.316 µM, first compound 0.03 µM): 62% | viability, T/C (second compound 0.316 µM, first compound 0.0949 µM): 58.8% | viability, T/C (second compound 0.316 µM, first compound 0.3 µM): 67.3% | viability, T/C (second compound 1 µM, first compound 0.000949 µM): 84.8% | viability, T/C (second compound 1 µM, first compound 0.003 µM): 77.8% | viability, T/C (second compound 1 µM, first compound 0.00949 µM): 64.5% | viability, T/C (second compound 1 µM, first compound 0.03 µM): 57.4% | viability, T/C (second compound 1 µM, first compound 0.0949 µM): 66.1% | viability, T/C (second compound 1 µM, first compound 0.3 µM): 59.9%

NC1c2ccccc2OC12CCN(c1cnc3c(N4CCCc5ncccc54)n[nH]c3n1)CC2 (centres undefined) + C#Cc1c(F)ccc2cc(O)cc(-c3ncc4c(N5CC6CCC(C5)N6)nc(OCC56CCCN5CC(F)C6)nc4c3F)c12
IC50 (second compound 0.0316 µM): 0.0433 µM | IC50 (second compound 0.1 µM): < 0.0316 µM | IC50 (second compound 0.316 µM): < 0.0316 µM | IC50 (second compound 1 µM): < 0.0316 µM | IC50 (second compound 3.16 µM): < 0.0316 µM | IC50 (second compound 10 µM): < 0.0316 µM | viability, T/C (second compound 0.0316 µM, first compound 0.0316 µM): 56.9% | viability, T/C (second compound 0.0316 µM, first compound 0.1 µM): 32.3% | viability, T/C (second compound 0.0316 µM, first compound 0.316 µM): 14.9% | viability, T/C (second compound 0.0316 µM, first compound 1 µM): 16.3% | viability, T/C (second compound 0.0316 µM, first compound 3.16 µM): 5.44% | viability, T/C (second compound 0.0316 µM, first compound 10 µM): 2.29% | viability, T/C (second compound 0.1 µM, first compound 0.0316 µM): 48.8% | viability, T/C (second compound 0.1 µM, first compound 0.1 µM): 27.7% | viability, T/C (second compound 0.1 µM, first compound 0.316 µM): 16.5% | viability, T/C (second compound 0.1 µM, first compound 1 µM): 8.26% | viability, T/C (second compound 0.1 µM, first compound 3.16 µM): 4.2% | viability, T/C (second compound 0.1 µM, first compound 10 µM): 2.16% | viability, T/C (second compound 0.316 µM, first compound 0.0316 µM): 43.7% | viability, T/C (second compound 0.316 µM, first compound 0.1 µM): 30.5% | viability, T/C (second compound 0.316 µM, first compound 0.316 µM): 14.4% | viability, T/C (second compound 0.316 µM, first compound 1 µM): 6.72% | viability, T/C (second compound 0.316 µM, first compound 3.16 µM): 4.41% | viability, T/C (second compound 0.316 µM, first compound 10 µM): 2.49% | viability, T/C (second compound 1 µM, first compound 0.0316 µM): 28.2% | viability, T/C (second compound 1 µM, first compound 0.1 µM): 21.9% | viability, T/C (second compound 1 µM, first compound 0.316 µM): 9.98% | viability, T/C (second compound 1 µM, first compound 1 µM): 6.62% | viability, T/C (second compound 1 µM, first compound 3.16 µM): 3.17% | viability, T/C (second compound 1 µM, first compound 10 µM): 1.84% | viability, T/C (second compound 3.16 µM, first compound 0.0316 µM): 28.2% | viability, T/C (second compound 3.16 µM, first compound 0.1 µM): 15.1% | viability, T/C (second compound 3.16 µM, first compound 0.316 µM): 11.1% | viability, T/C (second compound 3.16 µM, first compound 1 µM): 6.14% | viability, T/C (second compound 3.16 µM, first compound 3.16 µM): 4.26% | viability, T/C (second compound 3.16 µM, first compound 10 µM): 1.29% | viability, T/C (second compound 10 µM, first compound 0.0316 µM): 21% | viability, T/C (second compound 10 µM, first compound 0.1 µM): 13.5% | viability, T/C (second compound 10 µM, first compound 0.316 µM): 5.38% | viability, T/C (second compound 10 µM, first compound 1 µM): 2.35% | viability, T/C (second compound 10 µM, first compound 3.16 µM): 2.25% | viability, T/C (second compound 10 µM, first compound 10 µM): 0.66%
